What was measured:
Assay in all cases: Growth inhibition of cancer cell lines, 72 hrs (CellTiter-Glo)
Assay type in all cases: cell-based
[1] = test system: CAL 27; settings: Homo sapiens, upper aerodigestive tract, squamous cell carcinoma
Method: (§1) Example C: Inhibition of Cancer Cell Growth by Treatment with PARP7 Inhibitors
(§2) Table A-2 and Table A-3 (below) represents the concentration that causes 50% growth inhibition (GI50) in a panel of cancer cell lines with Compound 18B and Compound 561. Cells were plated into 384-well plates at a pre-specified density in fetal bovine serum-containing media. Cells were treated with compound or vehicle (DMSO) 24 hrs later, and a day zero plate was collected for analysis. Test compound plates were incubated continuously for 72 hrs (Table A-2) or 144 hours (Table A-3) cell growth was assessed using a luminescent cell viability assay (CellTiter-Glo, Promega). The GI50was determined by correcting for the cell count at time zero (time of treatment) and plotting data as percent growth relative to vehicle-treated cells.

[2] = test system: CFPAC-1; settings: Homo sapiens, pancreas, ductal carcinoma
Method: as §1, §2

[3] = test system: COLO-680N; settings: Homo sapiens, oesophagus, squamous cell carcinoma
Method: as §1, §2

[4] = test system: COR-L105; settings: Homo sapiens, lung, adenocarcinoma
Method: as §1, §2

[5] = test system: Caki-1; settings: Homo sapiens, kidney, clear cell renal cell carcinoma
Method: as §1, §2

[6] = test system: EBC-1; settings: Homo sapiens, lung, squamous cell carcinoma
Method: as §1, §2

[7] = test system: EFE-184; settings: Homo sapiens, endometrium, not specified
Method: as §1, §2

[8] = test system: EN; settings: endometrium, not specified
Method: as §1, §2

[9] = test system: FaDu; settings: Homo sapiens, upper aerodigestive tract, squamous cell carcinoma
Method: as §1, §2

[10] = test system: GSU; settings: stomach, adenocarcinoma
Method: as §1, §2

[11] = test system: HCC-1195; settings: lung, mixed adenosquamous carcinoma
Method: as §1, §2

[12] = test system: HCC-2279; settings: lung, adenocarcinoma
Method: as §1, §2

[13] = test system: HCC1187; settings: Homo sapiens, breast, ductal carcinoma
Method: as §1, §2

[14] = test system: HCC1599; settings: Homo sapiens, breast, ductal carcinoma
Method: as §1, §2

[15] = test system: HCC1937; settings: Homo sapiens, breast, ductal carcinoma
Method: as §1, §2

[16] = test system: HCC827; settings: Homo sapiens, lung, adenocarcinoma
Method: as §1, §2

[17] = test system: Hs 578T; settings: Homo sapiens, breast, ductal carcinoma
Method: as §1, §2

[18] = test system: IA-LM; settings: lung, large cell carcinoma
Method: as §1, §2

[19] = test system: JHOS-2; settings: ovary, adenocarcinoma
Method: as §1, §2

[20] = test system: KMBC-2; settings: urinary tract, not specified
Method: as §1, §2

[21] = test system: KMRC-3; settings: kidney, clear cell renal cell carcinoma
Method: as §1, §2

[22] = test system: LS123; settings: Homo sapiens, LS-123, large intestine, adenocarcinoma
Method: as §1, §2

[23] = test system: LUDLU-l; settings: lung, squamous cell carcinoma
Method: as §1, §2

[24] = test system: LXF-289; settings: Homo sapiens, lung, adenocarcinoma
Method: as §1, §2

[25] = test system: NCI-H1373; settings: Homo sapiens, lung, adenocarcinoma
Method: as §1, §2

[26] = test system: NCI-H1437; settings: Homo sapiens, lung, adenocarcinoma
Method: as §1, §2

[27] = test system: NCI-H1930; settings: Homo sapiens, lung, small cell carcinoma
Method: as §1, §2

[28] = test system: NCI-H1963; settings: Homo sapiens, lung, small cell carcinoma
Method: as §1, §2

[29] = test system: NCI-H1975; settings: Homo sapiens, lung, non small cell carcinoma
Method: as §1, §2

[30] = test system: NCI-H2081; settings: Homo sapiens, lung, not specified
Method: as §1, §2

[31] = test system: NCI-H2228; settings: Homo sapiens, lung, adenocarcinoma
Method: as §1, §2

[32] = test system: NCI-H2347; settings: Homo sapiens, lung, adenocarcinoma
Method: as §1, §2

[33] = test system: NCI-H441; settings: Homo sapiens, lung, adenocarcinoma
Method: as §1, §2

[34] = test system: NCI-H596; settings: Homo sapiens, lung, mixed adenosquamous carcinoma
Method: as §1, §2

[35] = test system: NCI-H647; settings: Homo sapiens, lung, mixed adenosquamous carcinoma
Method: as §1, §2

[36] = test system: OVISE; settings: ovary, clear cell carcinoma
Method: as §1, §2

[37] = test system: Panc 03.27; settings: Homo sapiens, PANC-03-27, pancreas, ductal carcinoma
Method: as §1, §2

[38] = test system: SCC-25; settings: Homo sapiens, upper aerodigestive tract, squamous cell carcinoma
Method: as §1, §2

[39] = test system: SK-BR-3; settings: Homo sapiens, breast, not specified
Method: as §1, §2

[40] = test system: SNU-719; settings: stomach, not specified
Method: as §1, §2

[41] = test system: SW 900; settings: Homo sapiens, SW900, lung, squamous cell carcinoma
Method: as §1, §2

[42] = test system: SW620; settings: Homo sapiens, SW-620, large intestine, adenocarcinoma
Method: as §1, §2

[43] = test system: T3M-10; settings: lung, large cell carcinoma
Method: as §1, §2

[44] = test system: TUHR10TKB; settings: kidney, not specified
Method: as §1, §2

[45] = test system: TYK-nu; settings: ovary, undifferentiated carcinoma
Method: as §1, §2

SMILES: N#Cc1ccc(N2CCN(C(=O)c3cccc(OC[C@@H]4c5ccccc5CN4c4cn[nH]c(=O)c4C(F)(F)F)c3)CC2)nc1 (single isomer, unassigned) [Example 18 Isomer B]
- GI50 [1]: < 100 nM
- GI50 [2]: 100 to 1000 nM
- GI50 [3]: < 100 nM
- GI50 [4]: 100 to 1000 nM
- GI50 [5]: < 100 nM
- GI50 [6]: < 100 nM
- GI50 [7]: < 100 nM
- GI50 [8]: 100 to 1000 nM
- GI50 [9]: 100 to 1000 nM
- GI50 [10]: < 100 nM
- GI50 [11]: 100 to 1000 nM
- GI50 [12]: 100 to 1000 nM
- GI50 [13]: 100 to 1000 nM
- GI50 [14]: 100 to 1000 nM
- GI50 [15]: < 100 nM
- GI50 [16]: 100 to 1000 nM
- GI50 [17]: 100 to 1000 nM
- GI50 [18]: < 100 nM
- GI50 [19]: < 100 nM
- GI50 [20]: 100 to 1000 nM
- GI50 [21]: 100 to 1000 nM
- GI50 [22]: 100 to 1000 nM
- GI50 [23]: 100 to 1000 nM
- GI50 [24]: 100 to 1000 nM
- GI50 [25]: < 100 nM
- GI50 [26]: < 100 nM
- GI50 [27]: < 100 nM
- GI50 [28]: < 100 nM
- GI50 [29]: 100 to 1000 nM
- GI50 [30]: 100 to 1000 nM
- GI50 [31]: 100 to 1000 nM
- GI50 [32]: < 100 nM
- GI50 [33]: 100 to 1000 nM
- GI50 [34]: < 100 nM
- GI50 [35]: < 100 nM
- GI50 [36]: 100 to 1000 nM
- GI50 [37]: < 100 nM
- GI50 [38]: < 100 nM
- GI50 [39]: 100 to 1000 nM
- GI50 [40]: 100 to 1000 nM
- GI50 [41]: < 100 nM
- GI50 [42]: 100 to 1000 nM
- GI50 [43]: < 100 nM
- GI50 [44]: < 100 nM
- GI50 [45]: < 100 nM

— US10550105B2 (Ribon Therapeutics Inc., priority 2018, dated 2020)
